# Data reported in BindingDB's records for doi:10.1021/jm050824x (Chembridge Research Laboratories and Chembridge, 2006).
# Experiments:
# [1] = Antiproliferative activity against murine BaF3 cell line expressing NPM-ALK
# [2] = Antiproliferative activity against human NPM-ALK positive anaplastic large cell lymphoma karpas299 cell line
IC50 [1],IC50 [2],SMILES
> 25 µM,11.2 µM,"CN1CCN(Cc2ccc(NC(=O)c3cc(-c4ccc5c(c4)OCO5)c[nH]c3=O)cc2)CC1 [5-benzo[1,3]dioxol-5-yl-2-oxo-1,2-dihydro-pyridine-3-carboxylic acid [4-(4-methyl-piperazin-1-ylmethyl)-phenyl]-amide]"
,7.5 µM,"CN1CCN(CCc2ccc(NC(=O)c3cc(-c4ccc5c(c4)OCO5)c[nH]c3=O)cc2)CC1 [5-benzo[1,3]dioxol-5-yl-2-oxo-1,2-dihydro-pyridine-3-carboxylic acid {4-[2-(4-methyl-piperazin-1-yl)-ethyl]-phenyl}-amide]"
13.7 µM,,"CN1CCN(CCCc2ccc(NC(=O)c3cc(-c4ccc5c(c4)OCO5)c[nH]c3=O)cc2)CC1 [5-benzo[1,3]dioxol-5-yl-2-oxo-1,2-dihydro-pyridine-3-carboxylic acid {4-[3-(4-methyl-piperazin-1-yl)-propyl]-phenyl}-amide]"
